{"source": "patent US6914045B2", "about": "“Glycopeptide antibiotics” (Wyeth Holdings Corporation, priority 2001, dated 2005)", "key": {"Enterococcus sp.": {"system": "Enterococcus sp.", "experiment": "in vitro antibacterial evaluation, MIC by broth dilution", "assay_type": "cell-based", "settings": "broth dilution, 18 hours at 35° C.", "outline": "(§1)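 Broth dilution per NCCLS standard M7-A2 in Muller-Hinton II […], with an inoculum of 5×10^5 CFU/mL and antibiotic spanning 64-0.06 μg/mL. The MIC is the lowest concentration that inhibits growth of the organism.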"}, "Escherichia coli": {"system": "Escherichia coli", "experiment": "in vitro antibacterial evaluation, MIC by broth dilution", "assay_type": "cell-based", "settings": "18 hours at 35° C.", "outline": "as §1"}, "Staphylococcus sp.": {"system": "Staphylococcus sp.", "experiment": "in vitro antibacterial evaluation, MIC by broth dilution", "assay_type": "cell-based", "settings": "broth dilution, 18 hours at 35° C.", "outline": "as §1"}, "Streptococcus sp.": {"system": "Streptococcus sp.", "experiment": "in vitro antibacterial evaluation, MIC by broth dilution", "assay_type": "cell-based", "settings": "broth dilution, 18 hours at 35° C.", "outline": "as §1"}, "[1]": {"system": "Enterococcus faecalis (GC 6189)", "experiment": "acute lethal infection in mice", "assay_type": "in vivo", "settings": "female CD-1 mice, intraperitoneal challenge, intravenous 30 min. after infection, 7 day survival", "outline": "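Mice (female CD-1, 20+/−2 gm) receive bacteria ip in broth or hog gastric mucin, then test agent iv after 30 min. Median effective dose is calculated from 7 day survival pooled across 3 tests.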"}}, "data": [{"molecule": "CCC(CC)C1OCC2OC(OC3C(CO)OC(Oc4ccc(CC5NC(=O)C(C(C)c6ccccc6)NC(=O)CNC(=O)C(CO)NC(=O)C(C(O)C6CNC(=N)N6C6OC(CO)C(O)C(O)C6O)NC(=O)C(C(O)C6CNC(=N)N6)NC5=O)cc4)C(O)C3O)C(O)C(O)C2O1", "note": "(stereo not drawn) [Example 116, Cyclo[glycyl-β-methylphenylalanyl-O-[4-O-[4,6-O-(2-ethylbutylidene)hexopyranosyl]-hexopyranosyl]tyrosyl-3-(2-iminoimidazolidin-4-yl)seryl-3-(3-hexopyranosvl-2-iminoimidazolidin-4-yl)serylseryl]]", "values": [{"measurement": "MIC Enterococcus avium (GC 4558)", "setting": "Enterococcus sp.; Enterococcus avium (GC 4558)", "result": 2, "unit": "µg/mL"}, {"measurement": "MIC Enterococcus faecalis (ATCC 29212)", "setting": "Enterococcus sp.; Enterococcus faecalis (ATCC 29212)", "result": 2, "unit": "µg/mL"}, {"measurement": "MIC Enterococcus faecalis (GC 2242)", "setting": "Enterococcus sp.; Enterococcus faecalis (GC 2242)", "result": 2, "unit": "µg/mL"}, {"measurement": "MIC Enterococcus faecalis (GC 2691)", "setting": "Enterococcus sp.; Enterococcus faecalis (GC 2691)", "result": 2, "unit": "µg/mL"}, {"measurement": "MIC Enterococcus faecalis (GC 3059)", "setting": "Enterococcus sp.; Enterococcus faecalis (GC 3059)", "result": 2, "unit": "µg/mL"}, {"measurement": "MIC Enterococcus faecalis (GC 4552)", "setting": "Enterococcus sp.; Enterococcus faecalis (GC 4552)", "result": 2, "unit": "µg/mL"}, {"measurement": "MIC Enterococcus faecalis (GC 4553)", "setting": "Enterococcus sp.; Enterococcus faecalis (GC 4553)", "result": 2, "unit": "µg/mL"}, {"measurement": "MIC Enterococcus faecalis (GC 4554)", "setting": "Enterococcus sp.; Enterococcus faecalis (GC 4554)", "result": 2, "unit": "µg/mL"}, {"measurement": "MIC Enterococcus faecalis (GC 6189)", "setting": "Enterococcus sp.; Enterococcus faecalis (GC 6189)", "result": 2, "unit": "µg/mL"}, {"measurement": "MIC Enterococcus faecium (GC 2243)", "setting": "Enterococcus sp.; Enterococcus faecium (GC 2243)", "result": 2, "unit": "µg/mL"}, {"measurement": "MIC Enterococcus faecium (GC 4556)", "setting": "Enterococcus sp.; Enterococcus faecium (GC 4556)", "result": 2, "unit": "µg/mL"}, {"measurement": "MIC Enterococcus faecium (GC 4557)", "setting": "Enterococcus sp.; Enterococcus faecium (GC 4557)", "result": 2, "unit": "µg/mL"}, {"measurement": "MIC Enterococcus faecalis (ATCC 29212)", "setting": "Enterococcus sp.; strain ATCC 29212", "result": 2, "unit": "µg/mL"}, {"measurement": "MIC Enterococcus faecalis (GC 2242)", "setting": "Enterococcus sp.; strain GC 2242", "result": 2, "unit": "µg/mL"}, {"measurement": "MIC Enterococcus faecium (GC 2243)", "setting": "Enterococcus sp.; strain GC 2243", "result": 2, "unit": "µg/mL"}, {"measurement": "MIC Enterococcus faecalis (GC 2691)", "setting": "Enterococcus sp.; strain GC 2691", "result": 2, "unit": "µg/mL"}, {"measurement": "MIC Enterococcus faecalis (GC 3059)", "setting": "Enterococcus sp.; strain GC 3059", "result": 2, "unit": "µg/mL"}, {"measurement": "MIC Enterococcus faecalis (GC 4552)", "setting": "Enterococcus sp.; strain GC 4552", "result": 2, "unit": "µg/mL"}, {"measurement": "MIC Enterococcus faecalis (GC 4553)", "setting": "Enterococcus sp.; strain GC 4553", "result": 2, "unit": "µg/mL"}, {"measurement": "MIC Enterococcus faecalis (GC 4554)", "setting": "Enterococcus sp.; strain GC 4554", "result": 2, "unit": "µg/mL"}, {"measurement": "MIC Enterococcus faecium (GC 4556)", "setting": "Enterococcus sp.; strain GC 4556", "result": 2, "unit": "µg/mL"}, {"measurement": "MIC Enterococcus faecium (GC 4557)", "setting": "Enterococcus sp.; strain GC 4557", "result": 2, "unit": "µg/mL"}, {"measurement": "MIC Enterococcus avium (GC 4558)", "setting": "Enterococcus sp.; strain GC 4558", "result": 2, "unit": "µg/mL"}, {"measurement": "MIC Enterococcus faecalis (GC 6189)", "setting": "Enterococcus sp.; strain GC 6189", "result": 2, "unit": "µg/mL"}, {"measurement": "MIC Escherichia coli (ATCC 25922)", "setting": "Escherichia coli; strain ATCC 25922", "result": 32, "unit": "µg/mL"}, {"measurement": "MIC Escherichia coli (GC 4559)", "setting": "Escherichia coli; strain GC 4559", "result": 64, "unit": "µg/mL"}, {"measurement": "MIC Escherichia coli (GC 4560)", "setting": "Escherichia coli; strain GC 4560", "result": 1, "unit": "µg/mL"}, {"measurement": "MIC Coagulase Negative Staphylococcus (GC 4547)", "setting": "Staphylococcus sp.", "result": 1, "unit": "µg/mL"}, {"measurement": "MIC Coagulase Negative Staphylococcus (GC 4548)", "setting": "Staphylococcus sp.", "result": 1, "unit": "µg/mL"}, {"measurement": "MIC Coagulase Negative Staphylococcus (GC 4549)", "setting": "Staphylococcus sp.", "result": 1, "unit": "µg/mL"}, {"measurement": "MIC Coagulase Negative Staphylococcus (GC 4551)", "setting": "Staphylococcus sp.", "result": 1, "unit": "µg/mL"}, {"measurement": "MIC Coagulase Negative Staphylococcus (GC 6257)", "setting": "Staphylococcus sp.", "result": 0.5, "unit": "µg/mL"}, {"measurement": "MIC Staphylococcus aureus (ATCC 29213)", "setting": "Staphylococcus sp.", "result": 1, "unit": "µg/mL"}, {"measurement": "MIC Staphylococcus aureus (GC 1131)", "setting": "Staphylococcus sp.", "result": 1, "unit": "µg/mL"}, {"measurement": "MIC Staphylococcus aureus (GC 3051)", "setting": "Staphylococcus sp.", "result": 1, "unit": "µg/mL"}, {"measurement": "MIC Staphylococcus aureus (GC 3053)", "setting": "Staphylococcus sp.", "result": 1, "unit": "µg/mL"}, {"measurement": "MIC Staphylococcus aureus (GC 4541)", "setting": "Staphylococcus sp.", "result": 1, "unit": "µg/mL"}, {"measurement": "MIC Staphylococcus aureus (GC 4542)", "setting": "Staphylococcus sp.", "result": 0.5, "unit": "µg/mL"}, {"measurement": "MIC Staphylococcus aureus (GC 4544)", "setting": "Staphylococcus sp.", "result": 1, "unit": "µg/mL"}, {"measurement": "MIC Staphylococcus aureus (GC 4545)", "setting": "Staphylococcus sp.", "result": 1, "unit": "µg/mL"}, {"measurement": "MIC Staphylococcus aureus-SMITH (GC 4543)", "setting": "Staphylococcus sp.", "result": 1, "unit": "µg/mL"}, {"measurement": "MIC Staphylococcus haemolyticus (GC 4546)", "setting": "Staphylococcus sp.", "result": 0.5, "unit": "µg/mL"}, {"measurement": "MIC Staphylococcus aureus (GC 1131)", "setting": "Staphylococcus sp.; inoculum 5×10^5 CFU/mL, strain GC 1131", "result": 1, "unit": "µg/mL"}, {"measurement": "MIC Staphylococcus aureus (ATCC 29213)", "setting": "Staphylococcus sp.; strain ATCC 29213", "result": 1, "unit": "µg/mL"}, {"measurement": "MIC Staphylococcus aureus (GC 3051)", "setting": "Staphylococcus sp.; strain GC 3051", "result": 1, "unit": "µg/mL"}, {"measurement": "MIC Staphylococcus aureus (GC 3053)", "setting": "Staphylococcus sp.; strain GC 3053", "result": 1, "unit": "µg/mL"}, {"measurement": "MIC Staphylococcus aureus (GC 4541)", "setting": "Staphylococcus sp.; strain GC 4541", "result": 1, "unit": "µg/mL"}, {"measurement": "MIC Staphylococcus aureus (GC 4542)", "setting": "Staphylococcus sp.; strain GC 4542", "result": 0.5, "unit": "µg/mL"}, {"measurement": "MIC Staphylococcus aureus (GC 4544)", "setting": "Staphylococcus sp.; strain GC 4544", "result": 1, "unit": "µg/mL"}, {"measurement": "MIC Staphylococcus aureus (GC 4545)", "setting": "Staphylococcus sp.; strain GC 4545", "result": 1, "unit": "µg/mL"}, {"measurement": "MIC Staphylococcus haemolyticus (GC 4546)", "setting": "Staphylococcus sp.; strain GC 4546", "result": 0.5, "unit": "µg/mL"}, {"measurement": "MIC Coagulase Negative Staphylococcus (GC 4547)", "setting": "Staphylococcus sp.; strain GC 4547", "result": 1, "unit": "µg/mL"}, {"measurement": "MIC Coagulase Negative Staphylococcus (GC 4548)", "setting": "Staphylococcus sp.; strain GC 4548", "result": 1, "unit": "µg/mL"}, {"measurement": "MIC Coagulase Negative Staphylococcus (GC 4549)", "setting": "Staphylococcus sp.; strain GC 4549", "result": 1, "unit": "µg/mL"}, {"measurement": "MIC Coagulase Negative Staphylococcus (GC 4551)", "setting": "Staphylococcus sp.; strain GC 4551", "result": 1, "unit": "µg/mL"}, {"measurement": "MIC Coagulase Negative Staphylococcus (GC 6257)", "setting": "Staphylococcus sp.; strain GC 6257", "result": 0.5, "unit": "µg/mL"}, {"measurement": "MIC Staphylococcus aureus-SMITH (GC 4543)", "setting": "Staphylococcus sp.; strain SMITH GC 4543", "result": 1, "unit": "µg/mL"}, {"measurement": "MIC Streptococcus agalactiae (GC 4564)", "setting": "Streptococcus sp.; Streptococcus agalactiae (GC 4564)", "result": 0.25, "unit": "µg/mL"}, {"measurement": "MIC Streptococcus pneumoniae (ATCC 6301)", "setting": "Streptococcus sp.; Streptococcus pneumoniae (ATCC 6301)", "result": "<0.06", "unit": "µg/mL"}, {"measurement": "MIC Streptococcus pneumoniae (GC 1894)", "setting": "Streptococcus sp.; Streptococcus pneumoniae (GC 1894)", "result": "<0.06", "unit": "µg/mL"}, {"measurement": "MIC Streptococcus pneumoniae (GC 4565)", "setting": "Streptococcus sp.; Streptococcus pneumoniae (GC 4565)", "result": "<0.06", "unit": "µg/mL"}, {"measurement": "MIC Streptococcus pyogenes (GC 4563)", "setting": "Streptococcus sp.; Streptococcus pyogenes (GC 4563)", "result": 0.25, "unit": "µg/mL"}, {"measurement": "MIC Streptococcus pneumoniae (ATCC 6301)", "setting": "Streptococcus sp.; strain ATCC 6301", "result": "<0.06", "unit": "µg/mL"}, {"measurement": "MIC Streptococcus pneumoniae (GC 1894)", "setting": "Streptococcus sp.; strain GC 1894", "result": "<0.06", "unit": "µg/mL"}, {"measurement": "MIC Streptococcus pyogenes (GC 4563)", "setting": "Streptococcus sp.; strain GC 4563", "result": 0.25, "unit": "µg/mL"}, {"measurement": "MIC Streptococcus agalactiae (GC 4564)", "setting": "Streptococcus sp.; strain GC 4564", "result": 0.25, "unit": "µg/mL"}, {"measurement": "MIC Streptococcus pneumoniae (GC 4565)", "setting": "Streptococcus sp.; strain GC 4565", "result": "<0.06", "unit": "µg/mL"}, {"measurement": "median effective dose (ED50), Enterococcus faecalis (GC 6189)", "setting": "[1]", "result": 0.46, "unit": "mg/kg"}]}]}
